Laboratory results as given in patent US20260028552A1, “Cationic Surfactants with Improved pH Stability and Their Use” (Locus Solutions IPCo, LLC, priority 2022, published 2026).
“Also recorded” adds a separate entry of the source.

What was measured:
[1] = test system: Staphylococcus aureus (G+); assay: Microbial kill study (log reduction), Staphylococcus aureus; type: cell-based; conditions: for Log Reduction S. aureus (G+) 100 ppm 0 min / Log Reduction S. aureus (G+) 100 ppm 2 min / Log Reduction S. aureus (G+) 100 ppm 5 min / Activity Reduction S. aureus (G+) 100 ppm 5 min: pH 7, 100 ppm; for Activity Reduction S. aureus (G+) 100 ppm 5 min: day 4 accelerated stability vs day 0
Procedure: (§1) Studies were conducted to determine the antimicrobial capabilities of cationic arginine derivatized surfactants produced according to embodiments of the subject invention.
(§2) The test organisms were a mixture of Gram-negative and Gram-positive organisms, which served to validate the breadth of the spectrum of control and the utility of the technology for common pathogens of public health concern: Pseudomonas aeruginosa (Gram-negative), Staphylococcus aureus (Gram-positive) and Salmonella entericus (Gram-negative).
(§3) Test bacteria were grown at 32° C. for 24-48 hours in tryptic soy broth, then plated at a starting concentration of 10^7. PBS was used for dilution to achieve the desired cell concentration.
(§4) A stock solution of each antimicrobial treatment was created in water, which was then used to create each desired dilution for treatment: 25, 50, 200, 400, 500, 750, 1,000, 1,500, 2,000 and 4,000 ppm, in an appropriate volume of buffer. Buffers included 100 mM of citric acid, ammonium HCL, PBS or sodium bicarbonate.
(§5) The created cell dilution of 10^7 CFU/mL was mixed with either 100 uL to 900 uL of antimicrobial at the appropriate PPM, or 1-9 mL of antimicrobial at the appropriate PPM. The final concentration of the organism was […] once mixed with the antimicrobial.
(§6) The moment the organism was added to the antimicrobial, the timer was started for the desired time period (0, 2, 5, 6 or 10 min). At the end of the timer, the antimicrobial was neutralized, and dilutions were then plated onto TSA plates and incubated for 24-48 hours at 32° C.
(§7) The negative control comprised 0.1 mL from the organism stock plated onto a TSA plate. For the positive control a serial dilution was set up with a starting concentration of 400 PPM quaternary ammonium compound (QAC) and organism. Dilutions were plated at 10^2, 10^3 and 10^4 CFU/mL.
(§8) After 24 to 48 hours of incubation, plates were removed from the incubator and colony numbers were counted.
(§9) The below scale is commonly used in determining a compound's efficacy, where a greater than or equal to 6-fold logarithmic (≥6 log) reduction in less than 10 minutes is needed for disinfection.
(§10) Table 3 summarizes surface tension reduction at 1000 ppm and log reduction of S. aureus and S. enterica at 0 and 10 min. (200 ppm) for four categories of cationic amino alcohol surfactants according to embodiments of the subject invention.
(§11) Tables 4-5 summarize the pH stability over 4 days for a C12 cationic amino alcohol surfactant according to embodiments of the subject invention, LRO (RO), compared with LAE (RE), where LRO was produced through the coupling of a lauroyl chloride substrate and arginine ethyl ester. Log reductions were measured according to the procedures described above in Example 2.

[2] = Surface tension reduction at 1000 ppm; type: physicochemical
Procedure: Table 2 summarizes surface tension reduction at 1000 ppm and log reduction of P. aeruginosa at 0 and 10 min. (200 ppm) for two C12 cationic amino alcohol surfactants according to embodiments of the subject invention, LRO (R) and LKO (K), where LRO was produced through the coupling of a lauroyl chloride substrate and arginine ethyl ester and LKO was produced through the coupling of a lauroyl chloride substrate and lysine ethyl ester.
as §10

Salmonella enterica (G−) = assay: Microbial kill study (log reduction), Salmonella enterica; type: cell-based; conditions: for Log Reduction S. enterica (G−) 100 ppm 0 min / Log Reduction S. enterica (G−) 100 ppm 2 min / Log Reduction S. enterica (G−) 100 ppm 5 min / Activity Reduction S. enterica (G−) 100 ppm 5 min: pH 7, 100 ppm; for Activity Reduction S. enterica (G−) 100 ppm 5 min: day 4 accelerated stability vs day 0
Procedure: as §1, §2, §3, §4, §5, §6, §7, §8, §9, §10, §11

[3] = test system: Pseudomonas aeruginosa (G−); assay: Microbial kill study (log reduction), Pseudomonas aeruginosa; type: cell-based; conditions: P. aeruginosa
Procedure: as §1, §2, §3, §4
The created cell dilution of 10^7 CFU/mL was mixed with either 100 uL to 900 uL of antimicrobial at the appropriate PPM, or 1-9 mL of antimicrobial at the appropriate PPM. The final concentration of the organism was […] once mixed with the antimicrobial. […]
After 24 to 48 hours of incubation, plates were removed from the incubator and colony numbers were counted. […]

[4] = base-catalyzed hydrolysis of the ester, lactam formation; listed as LAE; cited from earlier work

| Compound | Log Reduction S. aureus (G+) 200 ppm 0 min [1] | Log Reduction S. aureus (G+) 200 ppm 10 min [1] | Surface Tension 1000 ppm ([2]; 1000 ppm (Table 3)) | Log Reduction S. enterica (G−) 200 ppm 0 min (Salmonella enterica (G−)) | Log Reduction S. enterica (G−) 200 ppm 10 min (Salmonella enterica (G−)) | Log Reduction S. aureus (G+) 100 ppm 0 min ([1]; Day 0 Stability) | Log Reduction S. aureus (G+) 100 ppm 2 min ([1]; Day 0 Stability) | Log Reduction S. aureus (G+) 100 ppm 5 min ([1]; Day 0 Stability) | Log Reduction S. aureus (G+) 100 ppm 0 min ([1]; Day 4 Accelerated Stability) | Log Reduction S. aureus (G+) 100 ppm 2 min ([1]; Day 4 Accelerated Stability) | Log Reduction S. aureus (G+) 100 ppm 5 min ([1]; Day 4 Accelerated Stability) | Activity Reduction S. aureus (G+) 100 ppm 5 min [1] | Log Reduction S. enterica (G−) 100 ppm 0 min (Salmonella enterica (G−); Day 0 Stability) | Log Reduction S. enterica (G−) 100 ppm 2 min (Salmonella enterica (G−); Day 0 Stability) | Log Reduction S. enterica (G−) 100 ppm 5 min (Salmonella enterica (G−); Day 0 Stability) | Log Reduction S. enterica (G−) 100 ppm 0 min (Salmonella enterica (G−); Day 4 Accelerated Stability) | Log Reduction S. enterica (G−) 100 ppm 2 min (Salmonella enterica (G−); Day 4 Accelerated Stability) | Log Reduction S. enterica (G−) 100 ppm 5 min (Salmonella enterica (G−); Day 4 Accelerated Stability) | Activity Reduction S. enterica (G−) 100 ppm 5 min (Salmonella enterica (G−)) | also measured |
| --- | --- | --- | --- | --- | --- | --- | --- | --- | --- | --- | --- | --- | --- | --- | --- | --- | --- | --- | --- | --- |
| linear sophorolipid argininol amide [SLP R O] | 0.00 log | 2.23 log | 41.89 mN/m | 0.00 log | 0.00 log | – | – | – | – | – | – | – | – | – | – | – | – | – | – | – |
| CCCCCCCCCCCC(=O)NC(CO)CCCNC(=N)N (stereo not drawn) [C12 R O, lauryl argininol alcohol] | 0.00 log | 6.24 log | 23.75 mN/m | 0.00 log | 6.20 log | 0.00 log | 2.17 log | 6.53 log | 0.00 log | 0.76 log | 6.53 log | 0.00% | 0.00 log | 1.32 log | 2.36 log | 0.00 log | 0.00 log | 0.79 log | 66.53% | Log Reduction 200 ppm 0 min ([3]; 0 min): 1.85 log; Log Reduction 200 ppm 10 min ([3]; 10 min): 6.25 log; Surface Tension 1000 ppm ([2]; 1000 ppm (Table 2)): 23.75 mN/m |
| CCCCCCCCCCCC(=O)N[C@@H](CCCN=C(N)N)C(=O)OCC [C12 R E, Ethyl lauroyl arginate, reference compound] | – | – | – | – | – | 0.00 log | 6.53 log | 6.53 log | 0.00 log | 0.93 log | 1.14 log | 82.54% | 0.00 log | 6.42 log | 6.42 log | 0.00 log | 0.00 log | 0.00 log | 100.00% | pH stability [4]: decreases at higher pH; also recorded: unstable at pH 7 or above |
